The source of these data is patent US8871934B2, “Fluorene compound and pharmaceutical use thereof” (Japan Tobacco Inc., priority 2008, dated 2014).

The experiment has as its target human PDHK2 (hPDHK2) (Homo sapiens (Human), UniProt Q15119). The experiment in a line: Inhibitory action of PDHK activity in vitro (kinase reaction, residual PDH activity measured). The format is biochemical. The protocol: In the case of human PDHK2 (hPDHK2, Genbank Accession No. NM_002611), modified hPDHK2 cDNA wherein FLAG-Tag sequence is added to the N terminal by a polymerase linkage reaction was prepared based on hPDHK2 cDNA clone (pReceiver-M01/PDK2-GeneCopoeia), and cloned into a vector (pET17b-Novagen). The recombinant construct was transformed into Escherichia coli (DH5α-TOYOBO). The recombinant clones were identified, plasmid DNA was isolated and subjected to the DNA sequence analysis. One clone which had the expected nucleic acid sequence was selected for expression work.
During the assay, the hPDHK2 enzyme concentration was set to the minimal concentration at which PDH is inhibited the most.
0.05 U/mL PDH (porcine heart PDH complex, Sigma P7032) and 1.6 μg/mL hPDHK2 were mixed in a buffer (50 mmol/L 3-morpholinopropanesulfonic acid (pH 7.0), 20 mmol/L dipotassium hydrogen phosphate, 60 mmol/L potassium chloride, 2 mmol/L magnesium chloride, 0.4 mmol/L EDTA, and 0.2% Pluronic F-68, 2 mmol/L dithiothreitol), the mixture was incubated at 4° C. overnight to give PDH/hPDHK2 complex. The test compound was diluted with dimethyl sulfoxide (DMSO). PDH/hPDHK2 complex (20 μL), test compound (1.5 μL) and 3.53 μmol/L ATP (diluted with buffer, 8.5 μL) were added to a half area 96 well UV-transparent microplate (Corning 3679), and PDHK reaction was performed at room temperature for 45 min. Instead of the test compound, DMSO (1.5 μL) was added to a control well. DMSO (1.5 μL) was added instead of the test compound to a blank well for the measurement of the maximum rate of PDH reaction, and hPDHK2 was not added. Than, 10 μL of substrates (5 mmol/L sodium pyruvate, 5 mmol/L Coenzyme A, 12 mmol/L NAD, and 5 mmol/L thiamine pyrophosphate, diluted with buffer) was added. The mixture was incubated at room temperature for 90 min, and the residual PDH activity was measured. The absorbance at 340 nm before and after PDH reaction was measured on a microplate reader to detect NADH produced by the PDH reaction. The PDHK inhibitory rate (%) of the test compound was calculated from the formula [{(PDH activity of test compound—PDH activity of control)/PDH activity of blank—PDH activity of control)}×100]. The IC50 value was calculated from the concentrations of the test compound at two points enclosing 50% inhibition of the PDHK activity.

The mark [1] stands for this setting: PDHK inhibitory activity (class symbol).
[2] abbreviates: read-out: PDHK inhibitory activity IC50.
Where [3] appears, read: PDHK inhibitory activity, class symbol of IC50.
Setting [4] is: PDHK inhibitory activity IC50 (μmol/L).

Where two headings read alike, the source gives them in different places.

Take `Cc1cc(-c2cnn(C(CO)CO)c2)c2c(c1)C(O)(C(F)(F)F)c1ccccc1-2` (single isomer, unassigned) [compound 605]: the IC50 is, setting by setting: under setting [1], less than 100 nM; under setting [2], 19 nM.
For `OC1(C(F)(F)F)c2cc(Cl)ccc2-c2ccc(Cl)cc21` [compound 14], the IC50 is greater than 1000 nM under setting [3] and 56600 nM under setting [2].
`Cc1cc(-c2cnn(CCO)c2)cc2c1-c1ccccc1C2(O)C(F)(F)F` (centres unmarked) [compound 584]: the IC50 is, setting by setting: under setting [3], less than 100 nM; under setting [2], 77 nM.
On the same counts, the results for `CCn1cc(-c2cc(C(N)=O)c3c(c2)C(O)(C(F)(F)F)c2ccccc2-3)cn1` (centres unmarked) [compound 530] are less than 100 nM and 43 nM.
On the same counts, the results for `OC1(C(F)(F)F)c2ccccc2-c2c(-c3ccncc3)cccc21` (centres unmarked) [compound 139] are greater than 1000 nM and greater than 10000 nM.
On the same counts, the results for `Cc1cc(C(=O)N2CC(OCCO)C2)cc2c1-c1ccccc1C2(O)C(F)(F)F` (single isomer, unassigned) [compound 152] are less than 100 nM and 54 nM.
On to `O=C(O)c1cccc2c1-c1ccccc1C2(O)C(F)(F)F` (centres unmarked) [compound 32], for which the IC50 by setting is: under setting [3], greater than 1000 nM; under setting [2], greater than 100000 nM.
The corresponding values for `OCCn1cc(-c2cc(F)cc3c2-c2ccccc2C3(O)C(F)(F)F)cn1` (centres unmarked) [compound 505] are less than 100 nM and 46 nM.
On to `OC1(C(F)(F)F)c2ccccc2-c2c(Cl)cc(-c3ccncc3)cc21` (centres unmarked) [compound 185], for which the IC50 under setting [3] is less than 100 nM and the IC50 under setting [2] was 53 nM.
The corresponding values for `O=C(c1cc(CO)c2c(c1)C(O)(C(F)(F)F)c1ccccc1-2)N1CCCC1` (centres unmarked) [compound 572] are 100 to 1000 nM and 109 nM.
On the same counts, the results for `Cc1nc(-c2cccc3c2-c2ccccc2C3(O)C(F)(F)F)no1` (centres unmarked) [compound 274] are greater than 1000 nM and 7490 nM.
On to `Nc1ccc(-c2ccc3c(c2)C(O)(C(F)(F)F)c2ccccc2-3)cc1` (centres unmarked) [compound 193], for which the IC50 by setting is: under setting [3], 100 to 1000 nM; under setting [2], 560 nM.
With `O=C1CCC(COc2ccc3c(c2)C(O)(C(F)(F)F)c2ccccc2-3)N1CCCO` (centres unmarked) [compound 421], the IC50 was 100 to 1000 nM under setting [3] and 233 nM under setting [2].
On the same counts, the results for `NC(=O)C1CCCN1C(=O)c1ccc2c(c1)C(O)(C(F)(F)F)c1ccccc1-2` (centres unmarked) [compound 176] are greater than 1000 nM and 8010 nM.
`O=C(c1ccc2c(c1)C(O)(C(F)(F)F)c1ccccc1-2)C1CCC1` (centres unmarked) [compound 119]: the IC50 by setting is: under setting [3], greater than 1000 nM; under setting [2], 1000 nM.
On the same counts, the results for `CON(C)C(=O)c1cccc2c1-c1ccccc1C2(O)C(F)(F)F` (centres unmarked) [compound 65] are greater than 1000 nM and greater than 100000 nM.
On the same counts, the results for `O=C(c1cnc2c(c1)C(O)(C(F)(F)F)c1ccccc1-2)N1CCC1` (centres unmarked) [compound 213] are 100 to 1000 nM and 173 nM.
As to `CCc1cc(CO)c2c(c1)C(O)(C(F)(F)F)c1ccccc1-2` (centres unmarked) [compound 642], the IC50 runs as follows: (read-out: PDHK inhibitory activity (class symbol)) greater than 1000 nM; under setting [2], greater than 1000 nM.
For `COC(=O)c1cc(Cl)c2c(c1)C(O)(C(F)(F)F)c1ccccc1-2` (single isomer, unassigned) [compound 647, 4-chloro-9-hydroxy-9-trifluoromethyl-9H-fluorene-2-carboxylic acid methyl ester], the IC50 is 100 to 1000 nM under setting [1] and 169 nM under setting [2].
As to `CNC(=O)c1cccc2c1-c1ccccc1C2(O)C(F)(F)F` (centres unmarked) [compound 34], the IC50 is, setting by setting: under setting [3], greater than 1000 nM; under setting [2], 33200 nM.
The corresponding values for `OC1(C(F)(F)F)c2ccccc2-c2c(-c3cn[nH]c3)cccc21` (centres unmarked) [compound 277] are 100 to 1000 nM and 125 nM.
On the same counts, the results for `O=C(COc1ccc2c(c1)C(O)(C(F)(F)F)c1ccccc1-2)N1CCC[C@@H]1CO` (some centres unmarked) [compound 382] are 100 to 1000 nM and 863 nM.
The corresponding values for `Cc1cc(-c2cnn(C(C)(C)CC(=O)O)c2)c2c(c1)C(O)(C(F)(F)F)c1ccccc1-2` (single isomer, unassigned) [compound 576] are less than 100 nM and 30 nM.
Take `CC(C)(C)CCc1cc(-c2cnn(C(CO)CO)c2)c2c(c1)C(O)(C(F)(F)F)c1ccccc1-2` (single isomer, unassigned) [compound 669]: the IC50 is, setting by setting: under setting [1], less than 100 nM; under setting [2], 17 nM.
In the case of `COCCOC1CN(C(=O)c2ccc3c(c2)C(O)(C(F)(F)F)c2ccccc2-3)C1` (centres unmarked) [compound 106], the IC50 runs as follows: under setting [3], 100 to 1000 nM; under setting [2], 461 nM.
The corresponding values for `OCCCn1cc(-c2cccc3c2-c2ccccc2C3(O)C(F)(F)F)cn1` (centres unmarked) [compound 436] are less than 100 nM and 65 nM.
The corresponding values for `CCCCCCOc1ccc2c(c1)C(O)(C(F)(F)F)c1ccccc1-2` (centres unmarked) [compound 294] are 100 to 1000 nM and 710 nM.
On the same counts, the results for `CC(=O)N(C)CCCOc1ccc2c(c1)C(O)(C(F)(F)F)c1ccccc1-2` (centres unmarked) [compound 334] are 100 to 1000 nM and 674 nM.
For the compound `CN(CCOc1cc(Cl)c2c(c1)C(O)(C(F)(F)F)c1ccccc1-2)C(=O)CO` (centres unmarked) [compound 409], the IC50 runs as follows: under setting [3], less than 100 nM; under setting [2], 67 nM.
On the same counts, the results for `CCN(CC)C(=O)C1CN(C(=O)c2ccc3c(c2)C(O)(C(F)(F)F)c2ccccc2-3)C1` (centres unmarked) [compound 200] are 100 to 1000 nM and 236 nM.
For the compound `CNC(=O)Cn1cc(-c2cc(F)cc3c2-c2ccccc2[C@]3(O)C(F)(F)F)cn1` (stereo in doubt) [compound 534], the IC50 under setting [4] worked out at 16 nM and the IC50 under setting [3] is less than 100 nM.
Turning to `CC(=O)NCc1ccc2c(c1)C(O)(C(F)(F)F)c1ccccc1-2` (centres unmarked) [compound 415], the IC50 runs as follows: under setting [3], greater than 1000 nM; under setting [2], 9190 nM.
On the same counts, the results for `CN1C(=O)CC[C@H]1COc1ccc2c(c1)C(O)(C(F)(F)F)c1ccccc1-2` (some centres unmarked) [compound 448] are 100 to 1000 nM and 381 nM.
For the compound `O=C(O)C1(n2cc(-c3cc(F)cc4c3-c3ccccc3[C@]4(O)C(F)(F)F)cn2)CCCC1` (stereo in doubt) [compound 549], the IC50 is 27 nM under setting [4] and less than 100 nM under setting [3].
For the compound `Cn1cc(-c2cc(C(=O)NCCCCO)cc3c2-c2ccccc2C3(O)C(F)(F)F)cn1` (centres unmarked) [compound 345], the IC50 runs as follows: under setting [3], 100 to 1000 nM; under setting [2], 121 nM.
The corresponding values for `CN(CCCO)C(=O)c1ccc2c(c1)C(O)(C(F)(F)F)c1ccccc1-2` (centres unmarked) [compound 327] are greater than 1000 nM and 2940 nM.
On the same counts, the results for `CN(C)C(=O)COC1CN(C(=O)c2ccc3c(c2)C(O)(C(F)(F)F)c2ccccc2-3)C1` (centres unmarked) [compound 118] are 100 to 1000 nM and 839 nM.
On the same counts, the results for `NC(=O)Cn1cc(-c2cc(OCCC34CC5CC(CC(O)(C5)C3)C4)cc3c2-c2ccccc2C3(O)C(F)(F)F)cn1` (single isomer, unassigned) [compound 541] are less than 100 nM and 15 nM.
For the compound `O=C(c1ccc2c(c1)C(O)(C(F)(F)F)c1ccccc1-2)N1CC(C(=O)N2CCCCC2)C1` (centres unmarked) [compound 202], the IC50 was 100 to 1000 nM under setting [3] and 247 nM under setting [2].
On to `OCCn1cc(-c2ccc3c(c2)C(O)(C(F)(F)F)c2cccc(CO)c2-3)cn1` (centres unmarked) [compound 590], for which the IC50 is greater than 1000 nM under setting [3] and 5920 nM under setting [2].
